{
  "source": "ChEMBL document CHEMBL4184286",
  "about": "“Discovery of morpholine-based aryl sulfonamides as Nav1.7 inhibitors” (Bioorg Med Chem Lett, 2018)",
  "key": {"[1]": {"biological_target": "T1, Sodium channel protein type 9 subunit alpha (Homo sapiens, UniProt Q15858)", "assay": "Antagonist activity at recombinant human Nav1.7 expressed in HEK293 cells assessed as reduction in peak inward current at -65 mV holding potential by patch clamp electrophysiology", "type": "cell-based"}, "[2]": {"biological_target": "T1, Sodium channel protein type 9 subunit alpha", "assay": "Antagonist activity at recombinant human Nav1.7 expressed in HEK293 cells assessed as reduction in channel current at -60 mV holding potential after 600 secs by barracuda automated electrophysiology method", "type": "cell-based"}, "[3]": {"biological_target": "T1, Sodium channel protein type 9 subunit alpha", "assay": "Antagonist activity at recombinant human Nav1.7 expressed in HEK293 cells assessed as reduction in peak inward current at 100 nM at -120 mV holding potential by patch clamp electrophysiology", "type": "cell-based"}, "[4]": {"biological_target": "Sodium channel protein type 2 subunit alpha (Homo sapiens, UniProt Q99250)", "assay": "Antagonist activity at recombinant human Nav1.2 assessed as reduction in channel current by barracuda automated electrophysiology method"}, "[5]": {"biological_target": "T1, Sodium channel protein type 9 subunit alpha", "assay": "Antagonist activity at recombinant human Nav1.7 expressed in HEK293 cells assessed as reduction in peak inward current at 1 uM at -120 mV holding potential by patch clamp electrophysiology", "type": "cell-based"}, "[6]": {"biological_target": "Sodium channel protein type 5 subunit alpha (Homo sapiens, UniProt Q14524)", "sequence (Q14524 whole entry)": "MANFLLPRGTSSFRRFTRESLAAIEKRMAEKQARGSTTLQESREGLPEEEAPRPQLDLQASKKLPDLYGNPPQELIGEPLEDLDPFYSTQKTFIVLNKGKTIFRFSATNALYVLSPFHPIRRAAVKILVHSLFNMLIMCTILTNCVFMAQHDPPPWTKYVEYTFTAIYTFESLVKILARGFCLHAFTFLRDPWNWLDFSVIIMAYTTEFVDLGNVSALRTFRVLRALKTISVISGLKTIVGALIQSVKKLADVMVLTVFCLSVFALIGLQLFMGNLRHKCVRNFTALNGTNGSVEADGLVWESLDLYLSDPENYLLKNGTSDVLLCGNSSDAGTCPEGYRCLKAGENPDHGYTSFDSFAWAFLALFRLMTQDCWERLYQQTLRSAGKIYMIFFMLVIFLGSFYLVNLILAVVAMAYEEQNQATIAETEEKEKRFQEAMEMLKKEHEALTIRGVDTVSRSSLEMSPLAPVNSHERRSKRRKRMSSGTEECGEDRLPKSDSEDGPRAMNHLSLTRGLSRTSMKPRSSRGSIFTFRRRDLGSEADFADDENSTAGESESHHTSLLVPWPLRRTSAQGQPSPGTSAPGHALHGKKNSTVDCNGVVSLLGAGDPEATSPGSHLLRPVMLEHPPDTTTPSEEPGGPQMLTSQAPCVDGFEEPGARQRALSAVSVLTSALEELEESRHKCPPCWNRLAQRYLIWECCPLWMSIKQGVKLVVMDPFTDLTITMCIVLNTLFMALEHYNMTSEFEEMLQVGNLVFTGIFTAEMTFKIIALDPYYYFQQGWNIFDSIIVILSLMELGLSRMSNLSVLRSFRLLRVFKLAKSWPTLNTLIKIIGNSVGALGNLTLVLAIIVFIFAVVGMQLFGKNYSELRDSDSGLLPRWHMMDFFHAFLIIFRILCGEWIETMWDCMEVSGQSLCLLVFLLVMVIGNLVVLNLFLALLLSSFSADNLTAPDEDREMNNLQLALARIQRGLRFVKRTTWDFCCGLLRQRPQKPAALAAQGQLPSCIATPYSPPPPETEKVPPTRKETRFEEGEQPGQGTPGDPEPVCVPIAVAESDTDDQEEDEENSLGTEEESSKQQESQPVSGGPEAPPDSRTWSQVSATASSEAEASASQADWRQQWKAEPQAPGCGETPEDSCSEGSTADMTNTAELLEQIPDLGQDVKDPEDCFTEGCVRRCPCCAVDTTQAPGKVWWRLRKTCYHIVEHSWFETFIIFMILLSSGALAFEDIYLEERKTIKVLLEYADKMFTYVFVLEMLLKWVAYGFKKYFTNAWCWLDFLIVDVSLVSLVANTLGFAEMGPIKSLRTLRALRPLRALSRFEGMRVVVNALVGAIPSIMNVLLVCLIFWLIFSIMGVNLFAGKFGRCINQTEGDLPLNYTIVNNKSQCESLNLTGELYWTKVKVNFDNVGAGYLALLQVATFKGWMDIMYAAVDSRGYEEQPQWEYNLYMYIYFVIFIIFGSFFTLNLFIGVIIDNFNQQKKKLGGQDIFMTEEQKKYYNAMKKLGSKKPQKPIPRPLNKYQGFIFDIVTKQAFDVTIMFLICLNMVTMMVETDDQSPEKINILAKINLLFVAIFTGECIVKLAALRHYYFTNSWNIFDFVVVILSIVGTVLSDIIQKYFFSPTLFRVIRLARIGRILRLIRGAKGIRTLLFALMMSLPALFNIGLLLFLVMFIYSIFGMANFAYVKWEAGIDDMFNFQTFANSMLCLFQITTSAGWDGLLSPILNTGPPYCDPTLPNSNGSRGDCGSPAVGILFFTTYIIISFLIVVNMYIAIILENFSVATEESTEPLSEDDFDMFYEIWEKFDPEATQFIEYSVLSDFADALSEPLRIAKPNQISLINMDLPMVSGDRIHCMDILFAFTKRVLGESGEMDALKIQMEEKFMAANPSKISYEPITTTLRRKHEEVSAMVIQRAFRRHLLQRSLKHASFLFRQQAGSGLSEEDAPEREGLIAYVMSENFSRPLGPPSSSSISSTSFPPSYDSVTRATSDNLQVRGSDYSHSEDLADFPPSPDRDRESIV", "assay": "Antagonist activity at recombinant human Nav1.5 expressed in HEK293 cells assessed as reduction in channel current at -50 mV holding potential after 600 secs by barracuda automated electrophysiology method", "type": "ADME, cell-based"}, "[7]": {"biological_target": "Sodium channel protein type 8 subunit alpha (Homo sapiens, UniProt Q9UQD0)", "sequence (Q9UQD0 whole entry)": "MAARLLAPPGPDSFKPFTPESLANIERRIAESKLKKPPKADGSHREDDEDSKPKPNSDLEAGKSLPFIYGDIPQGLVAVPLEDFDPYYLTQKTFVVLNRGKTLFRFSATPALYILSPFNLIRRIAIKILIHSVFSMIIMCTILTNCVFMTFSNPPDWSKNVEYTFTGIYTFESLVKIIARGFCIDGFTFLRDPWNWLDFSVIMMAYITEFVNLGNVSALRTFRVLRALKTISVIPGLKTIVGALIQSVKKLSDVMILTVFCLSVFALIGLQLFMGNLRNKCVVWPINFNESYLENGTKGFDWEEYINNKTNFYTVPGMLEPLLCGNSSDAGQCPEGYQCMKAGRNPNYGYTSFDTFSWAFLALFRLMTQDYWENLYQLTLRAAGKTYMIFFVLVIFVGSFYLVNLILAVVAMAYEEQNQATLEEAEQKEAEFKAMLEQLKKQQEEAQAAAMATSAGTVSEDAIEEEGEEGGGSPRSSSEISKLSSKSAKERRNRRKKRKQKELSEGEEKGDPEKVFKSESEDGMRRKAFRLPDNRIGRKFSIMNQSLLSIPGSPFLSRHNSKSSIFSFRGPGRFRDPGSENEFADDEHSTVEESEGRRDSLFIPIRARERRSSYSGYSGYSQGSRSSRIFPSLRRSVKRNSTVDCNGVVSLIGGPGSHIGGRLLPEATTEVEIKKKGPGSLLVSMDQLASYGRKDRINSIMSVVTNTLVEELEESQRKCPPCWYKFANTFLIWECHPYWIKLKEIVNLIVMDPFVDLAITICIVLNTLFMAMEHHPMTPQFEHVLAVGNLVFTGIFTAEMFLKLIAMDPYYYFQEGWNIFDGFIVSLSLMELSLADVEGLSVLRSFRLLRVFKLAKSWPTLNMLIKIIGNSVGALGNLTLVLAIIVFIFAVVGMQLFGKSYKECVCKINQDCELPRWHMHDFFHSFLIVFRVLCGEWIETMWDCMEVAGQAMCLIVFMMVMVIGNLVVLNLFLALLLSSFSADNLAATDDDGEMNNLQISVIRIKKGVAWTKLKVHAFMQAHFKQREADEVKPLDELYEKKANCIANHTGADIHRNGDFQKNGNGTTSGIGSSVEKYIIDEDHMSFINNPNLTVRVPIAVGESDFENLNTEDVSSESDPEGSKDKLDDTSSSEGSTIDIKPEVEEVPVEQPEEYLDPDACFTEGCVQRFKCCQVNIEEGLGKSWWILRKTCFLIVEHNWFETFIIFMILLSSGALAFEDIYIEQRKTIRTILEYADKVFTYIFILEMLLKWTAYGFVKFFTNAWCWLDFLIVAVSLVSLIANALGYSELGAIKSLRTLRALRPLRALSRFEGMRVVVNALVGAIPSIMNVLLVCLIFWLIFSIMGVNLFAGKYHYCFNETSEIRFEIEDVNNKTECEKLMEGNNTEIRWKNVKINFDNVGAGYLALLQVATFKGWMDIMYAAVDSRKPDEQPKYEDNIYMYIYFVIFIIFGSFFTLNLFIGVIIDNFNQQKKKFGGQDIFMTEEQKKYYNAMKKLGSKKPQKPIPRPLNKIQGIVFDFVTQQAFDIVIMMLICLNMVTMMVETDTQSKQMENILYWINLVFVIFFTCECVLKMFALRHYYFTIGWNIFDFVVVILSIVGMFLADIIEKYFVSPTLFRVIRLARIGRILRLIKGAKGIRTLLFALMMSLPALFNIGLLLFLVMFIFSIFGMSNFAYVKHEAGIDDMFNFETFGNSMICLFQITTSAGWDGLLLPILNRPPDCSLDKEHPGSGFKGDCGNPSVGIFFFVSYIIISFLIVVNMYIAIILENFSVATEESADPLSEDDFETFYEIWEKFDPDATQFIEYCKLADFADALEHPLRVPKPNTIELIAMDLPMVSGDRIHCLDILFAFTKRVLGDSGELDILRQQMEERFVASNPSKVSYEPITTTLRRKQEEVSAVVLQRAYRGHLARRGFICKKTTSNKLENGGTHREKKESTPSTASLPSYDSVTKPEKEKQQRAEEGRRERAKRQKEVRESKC", "assay": "Antagonist activity at recombinant human Nav1.6 assessed as reduction in channel current by barracuda automated electrophysiology method"}},
  "data": [
    {"smiles": "CC1(C)CN[C@H](c2cc(Cl)cc(Cl)c2)[C@@H](Oc2cc(F)c(S(=O)(=O)Nc3ncns3)cc2F)O1", "values": [
      {"measurement": "IC50", "setting": "[1]", "value": 0.011, "unit": "µM"},
      {"measurement": "IC50", "setting": "[2]", "value": 0.041, "unit": "µM"},
      {"measurement": "inhibition", "setting": "[3]", "value": 8, "unit": "%"},
      {"measurement": "IC50", "setting": "[4]", "value": 1.5, "unit": "µM"},
      {"measurement": "inhibition", "setting": "[5]", "value": 48, "unit": "%"},
      {"measurement": "IC50", "setting": "[6]", "value": 6, "unit": "µM"},
      {"measurement": "IC50", "setting": "[7]", "value": 1.6, "unit": "µM"}
    ]}
  ]
}
